The values that follow come from patent US20240132431A1, “METHOD FOR ALKYLATING ACIDIC FUNCTIONAL GROUP” (Chugai Seiyaku Kabushiki Kaisha, priority 2021, published 2024).

The target of this experiment is T1, Bcl-2 protein (Recombinant Human Bcl-2 Protein) (Homo sapiens, UniProt P10415).
T1 construct: purchased Novus NBP2-34889
As to the kind of experiment: Binding evaluation of mixture library compounds to Bcl-2 using AS-MS (affinity selection mass spectrometry). Conditions: for ASMS ratio (%) n = 1 / ASMS ratio (%) n = 2: ASMS Ratio(%)=(A−C)/B×100; for ASMS ratio (%) n = 1: replicate n = 1; for ASMS ratio (%) n = 2: replicate n = 2. The gist of the method: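 Bcl-2 binding is scored from LC/MS signal retained with protein through gel-filtration spin columns, normalised to unfiltered and protein-free controls. Incubation: 20 μM protein, […] per compound, 1 h, 23° C.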

Setting [1] is: AS-MS on the mixture of 1200 library compounds.
The mark [2] stands for this setting: AS-MS, mixture of 1200 compounds, Bcl-2.

T1 sequence (P10415 whole entry): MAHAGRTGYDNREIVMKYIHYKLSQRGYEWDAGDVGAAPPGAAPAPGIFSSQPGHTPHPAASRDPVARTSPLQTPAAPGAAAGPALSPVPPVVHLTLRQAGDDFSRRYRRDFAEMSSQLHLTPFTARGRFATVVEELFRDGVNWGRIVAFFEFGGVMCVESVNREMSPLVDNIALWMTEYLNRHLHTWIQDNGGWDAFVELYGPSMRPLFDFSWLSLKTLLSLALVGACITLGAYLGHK

As to `CCOc1cccc(-c2ccc(CN3CCN(c4ccc(C(=O)N(CC)CC)cc4)CC3)c(OC)c2)c1` [B4J053-01, 4-[4-[[4-(3-Ethoxyphenyl)-2-methoxyphenyl]methyl]piperazin-1-yl]-N,N-diethylbenzamide], under setting [1], the “ASMS ratio (%) n = 1” value is −0.1% and the “ASMS ratio (%) n = 2” value is on record as −6.0%.

On to `CCOc1cncc(-c2csc(C(=O)N3CCN(c4ccc(C(=O)NS(=O)(=O)c5ccc(NCCSc6ccccc6)c(C(F)(F)F)c5)cc4)CC3)c2)c1` [B2R024-01, 4-[4-[4-(5-Ethoxypyridin-3-yl)thiophene-2-carbonyl]piperazin-1-yl]-N-[4-(2-phenylsulfanylethylamino)-3-(trifluoromethyl)phenyl]sulfonylbenzamide], for which the “ASMS ratio (%)” value is, setting by setting: (n = 1) 0.0%; (n = 2) −1.2%. In the case of `CCOc1cccc(C#Cc2ccccc2CN2CCN(c3ccc(C(=O)Nc4ccc(OC)cc4)cc3)CC2)c1` [B1O069-01, 4-[4-[[2-[2-(3-Ethoxyphenyl)ethynyl]phenyl]methyl]piperazin-1-yl]-N-(4-methoxyphenyl)benzamide], under setting [1], the “ASMS ratio (%) n = 1” value came out at 6.2% and the “ASMS ratio (%) n = 2” value is reported as −2.4%. For the compound `CCOc1cncc(-c2cc(OC)c(CN3CCN(c4ccc(C(=O)NS(=O)(=O)c5ccc(NCCSc6ccccc6)c([N+](=O)[O-])c5)nn4)CC3)c(OC)c2)c1` [B2Q086-01, 6-[4-[[4-(5-Ethoxypyridin-3-yl)-2,6-dimethoxyphenyl]methyl]piperazin-1-yl]-N-[3-nitro-4-(2-phenylsulfanylethylamino)phenyl]sulfonylpyridazine-3-carboxamide], under “AS-MS, mixture library, Bcl-2”, the “ASMS ratio (%) n = 1” value is listed as −39.4% and the “ASMS ratio (%) n = 2” value is reported as 0.0%. With `CCOc1cccc(C#Cc2ccccc2CN2CCN(c3ccc(C(=O)NCC45CC6CC(CC(C6)C4)C5)nn3)CC2)c1` [B1A095-01, N-(1-Adamantylmethyl)-6-[4-[[2-[2-(3-ethoxyphenyl)ethynyl]phenyl]methyl]piperazin-1-yl]pyridazine-3-carboxamide], under setting [2], the “ASMS ratio (%) n = 1” value was 0.3% and the “ASMS ratio (%) n = 2” value is on record as −17.1%. On to `CCOc1cncc(-c2csc(CN3CCN(c4ccc(C(=O)NS(=O)(=O)CCC(F)(F)F)nn4)CC3)c2)c1` [B2N094-01, 6-[4-[[4-(5-Ethoxypyridin-3-yl)thiophen-2-yl]methyl]piperazin-1-yl]-N-(3,3,3-trifluoropropylsulfonyl)pyridazine-3-carboxamide], for which the “ASMS ratio (%)” value is, setting by setting: (n = 1) 0.0%; (n = 2) 0.0%. Take `CCOc1cccc(-c2ccc(C(C)N3CCN(c4ccc(C(=O)NCC(F)(F)F)cc4)CC3)cc2)c1` (stereo not shown) [B1K097-01, 4-[4-[1-[4-(3-Ethoxyphenyl)phenyl]ethyl]piperazin-1-yl]-N-(2,2,2-trifluoroethyl)benzamide]: under setting [2], the “ASMS ratio (%) n = 1” value is on record as −2.1% and the “ASMS ratio (%) n = 2” value is −3.1%.

Regarding `CCOc1cncc(-c2ccccc2CN2CCN(c3ccc(C(=O)NCC45CC6CC(CC(C6)C4)C5)nn3)CC2)c1` [B1A072-01, N-(1-Adamantylmethyl)-6-[4-[[2-(5-ethoxypyridin-3-yl)phenyl]methyl]piperazin-1-yl]pyridazine-3-carboxamide], under setting [2], the “ASMS ratio (%) n = 1” value was found to be 3.9% and the “ASMS ratio (%) n = 2” value is listed as −0.2%.

With `CCOc1cncc(-c2ccc(C(=O)N3CCN(c4ccc(C(=O)Nc5ccc(OC)cc5)nn4)CC3)c3ccccc23)c1` [B1O014-01, 6-[4-[4-(5-Ethoxypyridin-3-yl)naphthalene-1-carbonyl]piperazin-1-yl]-N-(4-methoxyphenyl)pyridazine-3-carboxamide], under setting [1], the “ASMS ratio (%) n = 1” value stood at 2.5% and the “ASMS ratio (%) n = 2” value was 0.2%.

Consider `CCOc1cccc(C#Cc2ccccc2C(=O)N2CCN(c3ccc(C(=O)NS(C)(=O)=O)nn3)CC2)c1` [B2I007-01, 6-[4-[2-[2-(3-Ethoxyphenyl)ethynyl]benzoyl]piperazin-1-yl]-N-methylsulfonylpyridazine-3-carboxamide], for which, for the setting “AS-MS, mixture library, Bcl-2”, the “ASMS ratio (%) n = 1” value is −1.6% and the “ASMS ratio (%) n = 2” value is listed as −1.6%. On to `CCOc1cncc(C#Cc2ccccc2CN2CCN(c3ccc(C(=O)NS(=O)(=O)C(C)(C)C)nn3)CC2)c1` [B2L096-01, N-tert-Butylsulfonyl-6-[4-[[2-[2-(5-ethoxypyridin-3-yl)ethynyl]phenyl]methyl]piperazin-1-yl]pyridazine-3-carboxamide], for which the “ASMS ratio (%)” value was 0.0% (n = 1) and 0.0% (n = 2). `CCOc1cncc(-c2ccc(CN3CCN(c4ccc(C(=O)N(C)CC56CC7CC(CC(C7)C5)C6)nn4)CC3)cc2F)c1` [B3A078-01, N-(1-Adamantylmethyl)-6-[4-[[4-(5-ethoxypyridin-3-yl)-3-fluorophenyl]methyl]piperazin-1-yl]-N-methylpyridazine-3-carboxamide]: under setting [1], the “ASMS ratio (%) n = 1” value is listed as 4.5% and the “ASMS ratio (%) n = 2” value is −1.5%.

`CCOc1cncc(-c2ccc(C(=O)N3CCN(c4ccc(C(=O)NS(=O)(=O)CCC(F)(F)F)nn4)CC3)cc2C)c1` [B2N004-01, 6-[4-[4-(5-Ethoxypyridin-3-yl)-3-methylbenzoyl]piperazin-1-yl]-N-(3,3,3-trifluoropropylsulfonyl)pyridazine-3-carboxamide]: the “ASMS ratio (%)” value is, setting by setting: (n = 1) 1.2%; (n = 2) −2.0%. As for “6-[4-[[3-Ethoxy-5-(3-ethoxyphenyl)phenyl]methyl]piperazin-1-yl]-N-propylpyridazine-3-carboxamide [B1M010-01]”, under setting [2], the “ASMS ratio (%) n = 1” value is given as 0.0% and the “ASMS ratio (%) n = 2” value is given as 0.0%. As for `CCOc1cccc(-c2cc(CN3CCN(c4ccc(C(=O)NCC56CC7CC(CC(C7)C5)C6)cc4)CC3)cc(OC(C)C)c2)c1` [B1A057-01, N-(1-Adamantylmethyl)-4-[4-[[3-(3-ethoxyphenyl)-5-propan-2-yloxyphenyl]methyl]piperazin-1-yl]benzamide], under setting [2], the “ASMS ratio (%) n = 1” value was 0.0% and the “ASMS ratio (%) n = 2” value is on record as 0.0%. `CCOc1cccc(-c2ccc(CN3CCN(c4ccc(C(=O)NS(C)(=O)=O)nn4)CC3)cc2F)c1` [B2I077-01, 6-[4-[[4-(3-Ethoxyphenyl)-3-fluorophenyl]methyl]piperazin-1-yl]-N-methylsulfonylpyridazine-3-carboxamide]: the “ASMS ratio (%)” value runs as follows: (n = 1) 0.0%; (n = 2) 0.0%. On to `CCOc1cncc(C#Cc2ccccc2CN2CCN(c3ccc(C(=O)NS(C)(=O)=O)cc3)CC2)c1` [B2I070-01, 4-[4-[[2-[2-(5-Ethoxypyridin-3-yl)ethynyl]phenyl]methyl]piperazin-1-yl]-N-methylsulfonylbenzamide], for which the “ASMS ratio (%)” value (n = 2) is on record as 0.0%. Take `CCOc1cncc(-c2ccc(C(=O)N3CCN(c4ccc(C(=O)N(C)CC56CC7CC(CC(C7)C5)C6)cc4)CC3)cc2C)c1` [B3A026-01, N-(1-Adamantylmethyl)-4-[4-[4-(5-ethoxypyridin-3-yl)-3-methylbenzoyl]piperazin-1-yl]-N-methylbenzamide]: under setting [1], the “ASMS ratio (%) n = 1” value was determined as 4.4% and the “ASMS ratio (%) n = 2” value was 0.6%. Take `CCOc1cccc(-c2cc(C(=O)N3CCN(c4ccc(C(=O)NS(C)(=O)=O)cc4)CC3)cc(C(C)(C)C)c2)c1` [B2I037-01, 4-[4-[3-tert-Butyl-5-(3-ethoxyphenyl)benzoyl]piperazin-1-yl]-N-methylsulfonylbenzamide]: for the setting “AS-MS, mixture library, Bcl-2”, the “ASMS ratio (%) n = 1” value is 0.0% and the “ASMS ratio (%) n = 2” value is recorded as 3.3%. Turning to “6-[4-[[2-[2-(3-Ethoxyphenyl)ethynyl]phenyl]methyl]piperazin-1-yl]-N-propylpyridazine-3-carboxamide [B1M053-01]”, under setting [2], the “ASMS ratio (%) n = 1” value is −3.0% and the “ASMS ratio (%) n = 2” value is listed as −3.1%.

On to `CCOc1cncc(-c2ccc(CN3CCN(c4ccc(C(=O)N(CC)CC)nn4)CC3)cc2F)c1` [B4J078-01, 6-[4-[[4-(5-Ethoxypyridin-3-yl)-3-fluorophenyl]methyl]piperazin-1-yl]-N,N-diethylpyridazine-3-carboxamide], for which, for the setting “AS-MS, mixture library, Bcl-2”, the “ASMS ratio (%) n = 1” value is on record as −0.5% and the “ASMS ratio (%) n = 2” value is given as 0.9%. Consider `CCOc1cccc(-c2ccc(CN3CCN(c4ccc(C(=O)NS(=O)(=O)CCC(F)(F)F)cc4)CC3)cc2C)c1` [B2N047-01, 4-[4-[[4-(3-Ethoxyphenyl)-3-methylphenyl]methyl]piperazin-1-yl]-N-(3,3,3-trifluoropropylsulfonyl)benzamide], for which the “ASMS ratio (%)” value stood at 0.0% (n = 1) and 0.0% (n = 2). Take “4-[4-[[4-(3-Ethoxyphenyl)-2-methoxyphenyl]methyl]piperazin-1-yl]-N-propylbenzamide [B1M093-01]”: under setting [1], the “ASMS ratio (%) n = 1” value was 0.0% and the “ASMS ratio (%) n = 2” value is 0.0%. Turning to `CCOc1cccc(-c2ccc(CN3CCN(c4ccc(C(=O)NCC56CC7CC(CC(C7)C5)C6)cc4)CC3)c(OC)c2)c1` [B1A053-01, N-(1-Adamantylmethyl)-4-[4-[[4-(3-ethoxyphenyl)-2-methoxyphenyl]methyl]piperazin-1-yl]benzamide], under setting [2], the “ASMS ratio (%) n = 1” value came to 13.2% and the “ASMS ratio (%) n = 2” value came to 4.8%. Consider `CCOc1cncc(-c2ccc(C(C)N3CCN(c4ccc(C(=O)NS(C)(=O)=O)cc4)CC3)cc2)c1` (stereo not shown) [B2I098-01, 4-[4-[1-[4-(5-Ethoxypyridin-3-yl)phenyl]ethyl]piperazin-1-yl]-N-methylsulfonylbenzamide], for which the “ASMS ratio (%)” value (n = 1) is recorded as 0.0% and the “ASMS ratio (%)” value (n = 2) is recorded as 0.0%.
